From ChEMBL document CHEMBL1201862, “PubChem BioAssay data set” (2004)
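A five-concentration, 48-hour dose response in 96-well plates underlies each endpoint, interpolated linearly between surrounding concentrations. At the GI50, growth is halved.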 Active and inactive are the calls of the source. Cut-off read from the data, not from the text of the source: active = GI50 up to about 1.1 µM and inactive = higher.

Key:
Test in all cases: NCI anticancer screen, dose series, 48 h
EKVX = system: EKVX
OVCAR-8 = system: OVCAR-8
SF-268 = system: SF-268
M19-MEL = system: M19-MEL
UO-31 = system: UO-31
A549 = system: A549
OVCAR-3 = system: OVCAR-3
HCC 2998 = system: HCC 2998
IGROV-1 = system: IGROV-1
OVCAR-4 = system: OVCAR-4
SK-MEL-2 = system: SK-MEL-2
NCI-H460 = system: NCI-H460
DLD-1 = system: DLD-1
TK-10 = system: TK-10
HT-29 = system: HT-29
RXF 393 = system: RXF 393
COLO 205 = system: COLO 205
KM12 = system: KM12
U-251 = system: U-251
HL-60 = system: HL-60
LOX IMVI = system: LOX IMVI
SK-MEL-5 = system: SK-MEL-5
CCRF-CEM = system: CCRF-CEM
LXFL 529 = system: LXFL 529
KM-20L2 = system: KM-20L2
DMS-114 = system: DMS-114
A498 = system: A498
HOP-62 = system: HOP-62
UACC-62 = system: UACC-62
SNB-75 = system: SNB-75
SNB-19 = system: SNB-19
SF-295 = system: SF-295
NCI-H23 = system: NCI-H23
SF-539 = system: SF-539
SN12C = system: SN12C
CAKI-1 = system: CAKI-1
DMS-273 = system: DMS-273
Malme-3M = system: Malme-3M
HCT-116 = system: HCT-116
K562 = system: K562
SK-OV-3 = system: SK-OV-3
HOP-18 = system: HOP-18
ACHN = system: ACHN
SW-620 = system: SW-620
XF498 = system: XF498
MOLT-4 = system: MOLT-4
UACC-257 = system: UACC-257
OVCAR-5 = system: OVCAR-5
M14 = system: M14
SK-MEL-28 = system: SK-MEL-28
RPMI-8226 = system: RPMI-8226
786-0 = system: 786-0
SNB-78 = system: SNB-78
HOP-92 = system: HOP-92
NCI-H522 = system: NCI-H522
HCT-15 = system: HCT-15
NCI-H226 = system: NCI-H226

Compound: CCC(C)c1cccc(C)c1NC(=O)C(=O)Cc1nc2ccccc2s1 (stereo not given)
- GI50 (EKVX): > 100 µM (inactive)
- GI50 (OVCAR-8): > 100 µM (inactive)
- GI50 (SF-268): > 100 µM (inactive)
- GI50 (M19-MEL): > 100 µM (inactive)
- GI50 (UO-31): > 100 µM (inactive)
- GI50 (A549): > 100 µM (inactive)
- GI50 (OVCAR-3): > 100 µM (inactive)
- GI50 (HCC 2998): > 100 µM (inactive)
- GI50 (IGROV-1): > 100 µM (inactive)
- GI50 (OVCAR-4): > 100 µM (inactive)
- GI50 (SK-MEL-2): > 100 µM (inactive)
- GI50 (NCI-H460): > 100 µM (inactive)
- GI50 (DLD-1): > 100 µM (inactive)
- GI50 (TK-10): > 100 µM (inactive)
- GI50 (HT-29): > 100 µM (inactive)
- GI50 (RXF 393): > 100 µM (inactive)
- GI50 (COLO 205): > 100 µM (inactive)
- GI50 (KM12): > 100 µM (inactive)
- GI50 (U-251): > 100 µM (inactive)
- GI50 (HL-60): > 100 µM (inactive)
- GI50 (LOX IMVI): > 100 µM (inactive)
- GI50 (SK-MEL-5): > 100 µM (inactive)
- GI50 (CCRF-CEM): > 100 µM (inactive)
- GI50 (LXFL 529): > 100 µM (inactive)
- GI50 (KM-20L2): > 100 µM (inactive)
- GI50 (DMS-114): > 100 µM (inactive)
- GI50 (A498): > 100 µM (inactive)
- GI50 (HOP-62): > 100 µM (inactive)
- GI50 (UACC-62): > 100 µM (inactive)
- GI50 (SNB-75): > 100 µM (inactive)
- GI50 (SNB-19): > 100 µM (inactive)
- GI50 (SF-295): > 100 µM (inactive)
- GI50 (NCI-H23): > 100 µM (inactive)
- GI50 (SF-539): > 100 µM (inactive)
- GI50 (SN12C): > 100 µM (inactive)
- GI50 (CAKI-1): > 100 µM (inactive)
- GI50 (DMS-273): > 100 µM (inactive)
- GI50 (Malme-3M): > 100 µM (inactive)
- GI50 (HCT-116): > 100 µM (inactive)
- GI50 (K562): > 100 µM (inactive)
- GI50 (SK-OV-3): > 100 µM (inactive)
- GI50 (HOP-18): > 100 µM (inactive)
- GI50 (ACHN): > 100 µM (inactive)
- GI50 (SW-620): > 100 µM (inactive)
- GI50 (XF498): > 100 µM (inactive)
- GI50 (MOLT-4): > 100 µM (inactive)
- GI50 (UACC-257): > 100 µM (inactive)
- GI50 (OVCAR-5): > 100 µM (inactive)
- GI50 (M14): > 100 µM (inactive)
- GI50 (SK-MEL-28): > 100 µM (inactive)
- GI50 (RPMI-8226): > 100 µM (inactive)
- GI50 (786-0): > 100 µM (inactive)
- GI50 (SNB-78): > 100 µM (inactive)
- GI50 (HOP-92): > 100 µM (inactive)
- GI50 (NCI-H522): > 100 µM (inactive)
- GI50 (HCT-15): > 100 µM

Compound: N#CCCN(c1ccc(/C=N/c2nc(-c3ccccc3)cs2)cc1)S(=O)(=O)c1ccccc1
- GI50 (EKVX): 37.5 µM (inactive)
- GI50 (OVCAR-8): > 100 µM (inactive)
- GI50 (SF-268): 56.1 µM (inactive)
- GI50 (M19-MEL): > 100 µM (inactive)
- GI50 (UO-31): 23.6 µM (inactive)
- GI50 (A549): 76.2 µM (inactive)
- GI50 (OVCAR-3): 39.8 µM (inactive)
- GI50 (HCC 2998): 64.9 µM (inactive)
- GI50 (IGROV-1): > 100 µM (inactive)
- GI50 (OVCAR-4): 64.7 µM (inactive)
- GI50 (SK-MEL-2): 86.9 µM (inactive)
- GI50 (DLD-1): 96.8 µM (inactive)
- GI50 (TK-10): 86.5 µM (inactive)
- GI50 (HT-29): > 100 µM (inactive)
- GI50 (COLO 205): > 100 µM (inactive)
- GI50 (KM12): > 100 µM (inactive)
- GI50 (U-251): > 100 µM (inactive)
- GI50 (HL-60): 30.8 µM (inactive)
- GI50 (LOX IMVI): > 100 µM (inactive)
- GI50 (SK-MEL-5): 35 µM (inactive)
- GI50 (CCRF-CEM): 48.5 µM (inactive)
- GI50 (LXFL 529): 56.9 µM (inactive)
- GI50 (KM-20L2): > 100 µM (inactive)
- GI50 (DMS-114): 39.4 µM (inactive)
- GI50 (A498): 75.9 µM (inactive)
- GI50 (HOP-62): 96.6 µM (inactive)
- GI50 (UACC-62): 59.2 µM (inactive)
- GI50 (SNB-75): 19.2 µM (inactive)
- GI50 (SNB-19): > 100 µM (inactive)
- GI50 (SF-295): 46.2 µM (inactive)
- GI50 (NCI-H23): 78.9 µM (inactive)
- GI50 (SF-539): > 100 µM (inactive)
- GI50 (SN12C): 92.5 µM (inactive)
- GI50 (CAKI-1): 25.8 µM (inactive)
- GI50 (DMS-273): > 100 µM (inactive)
- GI50 (Malme-3M): > 100 µM (inactive)
- GI50 (HCT-116): 75.3 µM (inactive)
- GI50 (K562): 35.6 µM (inactive)
- GI50 (SK-OV-3): > 100 µM (inactive)
- GI50 (SW-620): 83.8 µM (inactive)
- GI50 (XF498): > 100 µM (inactive)
- GI50 (MOLT-4): 44.7 µM (inactive)
- GI50 (UACC-257): 96.4 µM (inactive)
- GI50 (OVCAR-5): > 100 µM (inactive)
- GI50 (M14): 81.7 µM (inactive)
- GI50 (SK-MEL-28): 85.3 µM (inactive)
- GI50 (RPMI-8226): 44.4 µM (inactive)
- GI50 (786-0): > 100 µM (inactive)
- GI50 (SNB-78): > 100 µM (inactive)
- GI50 (NCI-H522): 31.6 µM (inactive)
- GI50 (HCT-15): > 100 µM

Compound: O=C1[C@H]2C(c3ccccc3)=NN(C(=O)c3ccccc3)[C@H]2C(=O)N1c1ccccc1
- GI50 (EKVX): > 100 µM (inactive)
- GI50 (OVCAR-8): > 100 µM (inactive)
- GI50 (UO-31): > 100 µM (inactive)
- GI50 (A549): > 100 µM (inactive)
- GI50 (OVCAR-3): > 100 µM (inactive)
- GI50 (IGROV-1): > 100 µM (inactive)
- GI50 (SK-MEL-2): > 100 µM (inactive)
- GI50 (NCI-H460): > 100 µM (inactive)
- GI50 (DLD-1): > 100 µM (inactive)
- GI50 (TK-10): > 100 µM (inactive)
- GI50 (HT-29): > 100 µM (inactive)
- GI50 (RXF 393): > 100 µM (inactive)
- GI50 (COLO 205): > 100 µM (inactive)
- GI50 (KM12): > 100 µM (inactive)
- GI50 (U-251): > 100 µM (inactive)
- GI50 (LOX IMVI): > 100 µM (inactive)
- GI50 (CCRF-CEM): > 100 µM (inactive)
- GI50 (DMS-114): > 100 µM (inactive)
- GI50 (HOP-62): > 100 µM (inactive)
- GI50 (UACC-62): > 100 µM (inactive)
- GI50 (SNB-75): > 100 µM (inactive)
- GI50 (SNB-19): > 100 µM (inactive)
- GI50 (SF-295): > 100 µM (inactive)
- GI50 (NCI-H23): > 100 µM (inactive)
- GI50 (SF-539): > 100 µM (inactive)
- GI50 (SN12C): > 100 µM (inactive)
- GI50 (DMS-273): > 100 µM (inactive)
- GI50 (Malme-3M): > 100 µM (inactive)
- GI50 (HCT-116): > 100 µM (inactive)
- GI50 (K562): > 100 µM (inactive)
- GI50 (SK-OV-3): > 100 µM (inactive)
- GI50 (HOP-18): 68.4 µM (inactive)
- GI50 (ACHN): > 100 µM (inactive)
- GI50 (NCI-H226): > 100 µM (inactive)
- GI50 (SW-620): > 100 µM (inactive)
- GI50 (MOLT-4): > 100 µM (inactive)
- GI50 (UACC-257): > 100 µM (inactive)
- GI50 (M14): > 100 µM (inactive)
- GI50 (SK-MEL-28): > 100 µM (inactive)
- GI50 (RPMI-8226): > 100 µM (inactive)
- GI50 (786-0): > 100 µM (inactive)
- GI50 (NCI-H522): > 100 µM (inactive)
- GI50 (HCT-15): > 100 µM
